# Reference: PubChem BioAssay (NCI)
#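 1) Cells in 96-well plates. 2) Compound, 48 h, 5 concentrations. 3) Linear interpolation between surrounding doses. 4) Unreached endpoint = highest concentration. TGI: total growth inhibition.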
# Columns and labels:
# Experiment in all cases: growth of human tumour cells (NCI), 48 h
# [1] = tested on: SF-268 CNS
# [2] = tested on: NCI/ADR-RES ovarian
# [3] = tested on: HL-60(TB) leukemia
# [4] = tested on: U251 CNS
# [5] = tested on: M14 melanoma
# [6] = tested on: T-47D breast
# [7] = tested on: DU-145 prostate
# [8] = tested on: HOP-92 NSCLC
# [9] = tested on: MDA-N
# [10] = tested on: NCI-H460 lung
# [11] = tested on: UACC-62 melanoma
# [12] = tested on: TK-10 renal
# [13] = tested on: SK-MEL-5 melanoma
# [14] = tested on: NCI-H522 lung
# [15] = tested on: UACC-257 melanoma
# [16] = tested on: UO-31 renal
# [17] = tested on: HCC-2998 colon
# [18] = tested on: SW-620 colon
# [19] = tested on: NCI-H23 lung
# [20] = tested on: OVCAR-3 ovarian
# [21] = tested on: SR leukemia
# [22] = tested on: IGROV1 ovarian
# [23] = tested on: CCRF-CEM leukemia
# [24] = tested on: COLO 205 colon
# [25] = tested on: ACHN renal
# [26] = tested on: HCT-116 colon
# [27] = tested on: SNB-75 CNS
# [28] = tested on: 786-0 renal
# [29] = tested on: HS 578T breast
# [30] = tested on: HT29 colon
# [31] = tested on: K-562 leukemia
# [32] = tested on: NCI-H226 lung
# [33] = tested on: OVCAR-5 ovarian
# [34] = tested on: OVCAR-4 ovarian
# [35] = tested on: LOX IMVI melanoma
# [36] = tested on: BT-549 breast
# [37] = tested on: A498 renal
# [38] = tested on: CAKI-1 renal
# [39] = tested on: SN12C renal
# [40] = tested on: SNB-19 CNS
# [41] = tested on: SK-OV-3 ovarian
# [42] = tested on: MALME-3M melanoma
# [43] = tested on: HCT-15 colon
# [44] = tested on: OVCAR-8 ovarian
# [45] = tested on: RPMI-8226 leukemia
# [46] = tested on: MCF7 breast
# [47] = tested on: SF-295 CNS
# [48] = tested on: EKVX NSCLC
# [49] = tested on: MDA-MB-435
# [50] = tested on: MDA-MB-231 breast
# [51] = tested on: SF-539 CNS
# [52] = tested on: SK-MEL-28 melanoma
# [53] = tested on: RXF 393 renal
# [54] = tested on: MOLT-4 leukemia
# [55] = tested on: HOP-62 NSCLC
# [56] = tested on: SK-MEL-2 melanoma
# [57] = tested on: A549 NSCLC
# [58] = tested on: KM12 colon
# [59] = tested on: PC-3 prostate
compound,measurement,setting,value
COc1ccc(-c2cc(=O)c3c(OC)c(OC)c(OC)c(OC)c3o2)c(OC)c1,TGI,[1],> 100 µM
same,TGI,[2],67.3 µM
same,TGI,[3],> 100 µM
same,TGI,[4],> 100 µM
same,TGI,[5],46.7 µM
same,TGI,[6],59.5 µM
same,TGI,[7],> 100 µM
same,TGI,[8],55.3 µM
same,TGI,[9],> 100 µM
same,TGI,[10],> 100 µM
same,TGI,[11],33 µM
same,TGI,[12],> 100 µM
same,TGI,[13],55.8 µM
same,TGI,[14],29.1 µM
same,TGI,[15],49.5 µM
same,TGI,[16],62.8 µM
same,TGI,[17],46.6 µM
same,TGI,[18],> 100 µM
same,TGI,[19],58.5 µM
same,TGI,[20],53.7 µM
same,TGI,[21],> 100 µM
same,TGI,[22],> 100 µM
same,TGI,[23],> 100 µM
same,TGI,[24],34.3 µM
same,TGI,[25],84.8 µM
same,TGI,[26],49.5 µM
same,TGI,[27],> 100 µM
same,TGI,[28],> 100 µM
same,TGI,[29],49.4 µM
same,TGI,[30],68.5 µM
same,TGI,[31],> 100 µM
same,TGI,[32],> 100 µM
same,TGI,[33],> 100 µM
same,TGI,[34],94.4 µM
same,TGI,[35],34.8 µM
same,TGI,[36],> 100 µM
same,TGI,[37],76.1 µM
same,TGI,[38],81.9 µM
same,TGI,[39],62.6 µM
same,TGI,[40],> 100 µM
same,TGI,[41],> 100 µM
same,TGI,[42],> 100 µM
same,TGI,[43],86.1 µM
same,TGI,[44],> 100 µM
same,TGI,[45],> 100 µM
same,TGI,[46],44 µM
same,TGI,[47],46 µM
same,TGI,[48],> 100 µM
same,TGI,[49],89.7 µM
same,TGI,[50],> 100 µM
same,TGI,[51],> 100 µM
same,TGI,[52],> 100 µM
same,TGI,[53],99.7 µM
same,TGI,[54],86.1 µM
same,TGI,[55],70.6 µM
same,TGI,[56],39.2 µM
same,TGI,[57],> 100 µM
O=C(O)C1CCCCC1c1c2ccc(=O)cc-2oc2cc(O)ccc12 (stereo not drawn),TGI,[1],> 100 µM
same,TGI,[2],> 100 µM
same,TGI,[3],> 100 µM
same,TGI,[4],96.9 µM
same,TGI,[5],78.6 µM
same,TGI,[6],54.4 µM
same,TGI,[7],66.7 µM
same,TGI,[8],41.1 µM
same,TGI,[9],> 100 µM
same,TGI,[10],> 100 µM
same,TGI,[11],> 100 µM
same,TGI,[12],> 100 µM
same,TGI,[58],49.1 µM
same,TGI,[13],> 100 µM
same,TGI,[14],62.1 µM
same,TGI,[15],> 100 µM
same,TGI,[16],> 100 µM
same,TGI,[17],> 100 µM
same,TGI,[18],> 100 µM
same,TGI,[19],> 100 µM
same,TGI,[20],69.2 µM
same,TGI,[22],41.3 µM
same,TGI,[23],> 100 µM
same,TGI,[24],> 100 µM
same,TGI,[25],> 100 µM
same,TGI,[26],> 100 µM
same,TGI,[27],72.1 µM
same,TGI,[28],> 100 µM
same,TGI,[29],96.7 µM
same,TGI,[30],> 100 µM
same,TGI,[31],> 100 µM
same,TGI,[33],> 100 µM
same,TGI,[34],88.1 µM
same,TGI,[35],> 100 µM
same,TGI,[36],> 100 µM
same,TGI,[37],> 100 µM
same,TGI,[38],> 100 µM
same,TGI,[39],> 100 µM
same,TGI,[40],> 100 µM
same,TGI,[41],96.5 µM
same,TGI,[42],> 100 µM
same,TGI,[43],> 100 µM
same,TGI,[44],90.8 µM
same,TGI,[45],> 100 µM
same,TGI,[46],> 100 µM
same,TGI,[47],> 100 µM
same,TGI,[48],> 100 µM
same,TGI,[49],49.3 µM
same,TGI,[50],> 100 µM
same,TGI,[51],48.7 µM
same,TGI,[52],> 100 µM
same,TGI,[59],> 100 µM
same,TGI,[53],62.6 µM
same,TGI,[54],> 100 µM
same,TGI,[56],> 100 µM
same,TGI,[57],> 100 µM
